For the test, the target named is Glutamate receptor ionotropic, NMDA 1 (Rattus norvegicus, UniProt P35439). The experiment in a line: ChEBML_140329. As to the method:
In vitro affinity of compound for the glycinergic site associated with NMDA receptor was assessed by inhibition of the binding of [3H]glycine

The molecule `O=C(O)c1[nH]c2cc(Cl)cc(Cl)c2c1/C=C1\CCN(c2ccccc2)C1=O` had a Ki of 7.5 nM.
As for `O=C(O)c1[nH]c2cc(Cl)cc(Cl)c2c1/C=C1\CCCN(c2ccccc2)C1=O`, the figure is 7.3 nM.
